Assays:
[1] = target: T1, Sialidase (Clostridium perfringens, UniProt P10481); assay: Non-competitive inhibition of Clostridium perfringens neuraminidase using 4-methylumbelliferyl-alpha-D-N-acetylneuraminic acid sodium salt hydrate as substrate by Dixon plot method
T1 sequence (P10481 whole entry): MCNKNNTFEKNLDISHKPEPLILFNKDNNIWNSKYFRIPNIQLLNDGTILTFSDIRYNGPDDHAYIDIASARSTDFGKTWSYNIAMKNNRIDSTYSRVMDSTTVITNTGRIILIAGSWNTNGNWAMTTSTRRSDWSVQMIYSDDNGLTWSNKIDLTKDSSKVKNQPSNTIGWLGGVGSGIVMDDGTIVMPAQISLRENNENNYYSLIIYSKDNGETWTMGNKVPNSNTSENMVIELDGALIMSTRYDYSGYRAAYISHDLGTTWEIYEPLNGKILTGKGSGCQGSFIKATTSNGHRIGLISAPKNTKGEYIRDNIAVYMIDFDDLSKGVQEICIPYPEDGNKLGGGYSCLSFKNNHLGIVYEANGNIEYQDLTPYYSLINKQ

[2] = target: T1, Sialidase; assay: (§1) Inhibition of Clostridium perfringens neuraminidase using 4-methylumbelliferyl-alpha-D-N-acetylneuraminic acid sodium salt hydrate as substrate by fluorimetry
[3] = target: T2, Sialidase (Clostridium perfringens) (UniProt P10481); assay: as §1
T2 sequence (whole entry): T1 sequence (P10481 whole entry)

## CC(C)=CCc1c(O)c(CC=C(C)C)c2occ(-c3ccc(O)cc3)c(=O)c2c1O
[1]
  Ki: 4.29 µM
[2]
  IC50: 4.04 µM
[3]
  inhibition: Dose-dependent effect

## CC(C)=CCc1cc(-c2coc3cc(O)cc(O)c3c2=O)c(CC=C(C)C)c(O)c1O
[1]
  Ki: 7.86 µM
[2]
  IC50: 7.85 µM
[3]
  inhibition: Dose-dependent effect

## CC(C)=CCc1c2c(c3occ(-c4ccc(O)cc4)c(=O)c3c1O)C=CC(C)(C)O2 [OSAJIN]
[1]
  Ki: 3.21 µM
[2]
  IC50: 3.06 µM
[3]
  inhibition: Dose-dependent effect

## CC(C)=CCc1c2c(c(O)c3c(=O)c(-c4ccc(O)c(O)c4)coc13)C=CC(C)(C)O2 [AURICULASIN]
[1]
  Ki: 0.13 µM
[2]
  IC50: 0.3 µM
[3]
  inhibition: Dose-dependent effect

## COc1cc(-c2coc3c(CC=C(C)C)c(O)c(CC=C(C)C)c(O)c3c2=O)ccc1O [FLEMINGSIN]
[1]
  Ki: 3.68 µM
[2]
  IC50: 3.75 µM
[3]
  inhibition: Dose-dependent effect

## C=CC(C)(C)C1=Cc2c(c(CC=C(C)C)c3occ(-c4ccc(O)cc4)c(=O)c3c2O)OC1(C)C
[1]
  Ki: 7.27 µM
[2]
  IC50: 7.9 µM
[3]
  inhibition: Dose-dependent effect

## C=CC(C)(C)C1=Cc2c(c(CC=C(C)C)c3occ(-c4ccc(O)c(O)c4)c(=O)c3c2O)OC1(C)C
[1]
  Ki: 1.36 µM
[2]
  IC50: 1.63 µM
[3]
  inhibition: Dose-dependent effect

## O=c1c(-c2ccc(O)cc2)coc2cc(O)cc(O)c12 [GENISTEIN]
[2]
  IC50: 12 µM

## CC(C)=CCc1c(-c2coc3cc(O)cc(O)c3c2=O)cc2c(c1O)OC(C)(C)C=C2
[1]
  Ki: 53 µM
[2]
  IC50: 56.8 µM
[3]
  inhibition: Dose-dependent effect

## CC(C)=CCc1c(O)c(CC=C(C)C)c2occ(-c3ccc(O)c(O)c3)c(=O)c2c1O
[1]
  Ki: 1.02 µM
[2]
  IC50: 1.07 µM
[3]
  inhibition: Dose-dependent effect
